From patent publication US20100075965A1, “PI3 KINASE INHIBITORS AND METHODS OF THEIR USE” (Novartis AG, priority 2006, published 2010)
pEC50, pIC50: −log10 of the molar value.

Assays:
A2780 cells = assay: Viability assay in A2780 (Cell Titer Glo); format: cell-based, human; conditions: Homo sapiens; A2780 cells; read-out: A2780 Cell prolif. EC50
Method: Cell viability was assessed with Cell Titer Glo assay, Promega. Cells were seeded in TC treated 96-well plates at a density of 1,000 (A2780 cells) per well in DMEM with 10% FBS, 1% Sodium Pyruvate, and 1% Penicillin Streptomycin for a minimum of 2 hrs prior to addition of compound. Test compounds were serially diluted (3 fold) in DMSO to 500× the final concentration. For each concentration of test compound, 2 μL (500×) aliquots of compound or 100% DMSO (control) were diluted in 500 μL of culture medium to 2× final concentration then diluted 1× on the cells. Cells were incubated for 72 hrs at 37° C., 5% CO2. After which Cell Titer Glo is added to determine viable cells, the assay was performed according to the manufacturer's instruction (Promega Corporation, Madison, Wis. USA). Each experimental condition was performed in duplicate. Raw data was imported in Abase and EC50s calculated with XL-fit data analysis software and are shown in Tables 1 and 2 in the column labeled “A2780 Cell prolif. EC50”.

PI3 K Alpha = PI3 K Alpha (Homo sapiens, UniProt P42336); assay: PI3 kinase phosphorylation assays (homogenous solution phase, one step solid phase, ATP depletion/KinaseGlo); format: biochemical; conditions: read-out: PI3K Alpha IC50
Chain of PI3 K Alpha (P42336 whole entry): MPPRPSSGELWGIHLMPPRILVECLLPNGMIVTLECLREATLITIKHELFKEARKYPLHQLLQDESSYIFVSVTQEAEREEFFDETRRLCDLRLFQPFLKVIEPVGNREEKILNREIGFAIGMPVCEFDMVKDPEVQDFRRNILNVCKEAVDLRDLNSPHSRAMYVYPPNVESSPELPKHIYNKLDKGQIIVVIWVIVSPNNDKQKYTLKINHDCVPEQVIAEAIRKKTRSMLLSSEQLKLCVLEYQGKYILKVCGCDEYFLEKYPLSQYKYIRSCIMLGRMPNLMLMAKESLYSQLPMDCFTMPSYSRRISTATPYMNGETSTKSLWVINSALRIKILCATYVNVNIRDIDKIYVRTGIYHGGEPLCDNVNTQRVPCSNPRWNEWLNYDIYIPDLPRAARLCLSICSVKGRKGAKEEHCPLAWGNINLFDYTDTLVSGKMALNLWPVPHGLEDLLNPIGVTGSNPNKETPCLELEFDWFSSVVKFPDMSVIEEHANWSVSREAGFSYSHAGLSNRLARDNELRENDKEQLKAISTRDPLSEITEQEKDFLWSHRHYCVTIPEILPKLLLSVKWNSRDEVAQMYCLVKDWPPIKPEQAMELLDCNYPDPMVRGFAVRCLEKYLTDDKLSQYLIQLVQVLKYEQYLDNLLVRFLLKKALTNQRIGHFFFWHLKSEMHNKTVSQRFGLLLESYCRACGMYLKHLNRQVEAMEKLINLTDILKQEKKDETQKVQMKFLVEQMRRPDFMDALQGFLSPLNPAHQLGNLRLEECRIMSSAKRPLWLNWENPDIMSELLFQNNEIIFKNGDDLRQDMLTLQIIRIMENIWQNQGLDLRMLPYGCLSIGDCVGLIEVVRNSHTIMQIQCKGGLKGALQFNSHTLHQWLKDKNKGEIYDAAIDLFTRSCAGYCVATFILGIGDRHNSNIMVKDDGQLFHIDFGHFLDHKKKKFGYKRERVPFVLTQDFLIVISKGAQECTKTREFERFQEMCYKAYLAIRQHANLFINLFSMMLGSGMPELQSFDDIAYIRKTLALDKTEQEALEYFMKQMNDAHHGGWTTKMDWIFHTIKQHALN
Chain of PI3 K Alpha (P27986 whole entry partner): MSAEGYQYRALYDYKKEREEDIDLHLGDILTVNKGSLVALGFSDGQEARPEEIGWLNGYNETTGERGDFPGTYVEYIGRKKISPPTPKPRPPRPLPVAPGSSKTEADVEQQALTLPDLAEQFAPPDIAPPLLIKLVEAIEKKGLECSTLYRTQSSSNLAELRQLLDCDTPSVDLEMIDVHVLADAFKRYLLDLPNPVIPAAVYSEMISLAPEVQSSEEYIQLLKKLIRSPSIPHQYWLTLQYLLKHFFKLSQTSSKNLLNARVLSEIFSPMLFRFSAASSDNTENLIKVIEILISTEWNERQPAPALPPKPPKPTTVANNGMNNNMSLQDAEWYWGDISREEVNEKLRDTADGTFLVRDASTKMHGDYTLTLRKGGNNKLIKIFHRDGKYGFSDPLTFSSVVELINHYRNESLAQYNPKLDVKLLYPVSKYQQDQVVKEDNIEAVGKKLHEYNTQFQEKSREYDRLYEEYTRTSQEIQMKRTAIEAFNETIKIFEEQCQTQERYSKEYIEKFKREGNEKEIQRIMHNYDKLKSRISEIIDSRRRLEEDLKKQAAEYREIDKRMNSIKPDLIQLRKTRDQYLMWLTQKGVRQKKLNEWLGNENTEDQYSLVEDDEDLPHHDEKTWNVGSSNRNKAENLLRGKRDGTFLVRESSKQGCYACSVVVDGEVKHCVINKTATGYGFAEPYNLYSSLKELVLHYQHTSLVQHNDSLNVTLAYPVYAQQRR

Structure (SMILES)	pEC50 (A2780 cells)	pIC50 (PI3 K Alpha)
CC(=O)NC1CCN(C(=O)Nc2cn3cc(-c4cnc(N)c(C(F)(F)F)c4)ccc3n2)C1 (centres unmarked) [Example 146, 3-acetamido-N-(6-(6-amino-5-(trifluoromethyl)pyridin-3-yl)imidazo[1,2-a]pyridin-2-yl)pyrrolidine-1-carboxamide]	> 4.60	> 6.00
CC(=O)Nc1cn2cc(-c3cnc(N)c(C(=O)NCCO)n3)ccc2n1 [Example 147, 6-(2-acetamido-imidazo[1,2-a]pyridin-6-yl)-3-amino-N-(2-hydroxyethyl) pyrazine-2-carboxamide]	> 4.60	> 6.00
NC(=O)N1CC[C@H]1C(=O)Nc1cn2cc(-c3cnc(N)c(C(F)(F)F)c3)ccc2n1 [Example 148, (S)-N2-(6-(6-amino-5-(trifluoromethyl)pyridin-3-yl)imidazo[1,2-a]pyridin-2-yl)azetidine-1,2-dicarboxamide]	> 4.60	> 6.00
CC(=O)Nc1cn2cc(-c3cnc(N)c(OC4CNC4)n3)ccc2n1 [Example 149, N-(6-(5-amino-6-(azetidin-3-yloxy)pyrazin-2-yl)imidazo[1,2-a]pyridin-2-yl)acetamide]	> 4.60	> 6.00
CO/N=C/c1cc(-c2ccc3nc(NC(C)=O)cn3c2)cnc1N [Example 150, (E)-N-(6-(6-amino-5-((methoxy-imino)methyl)pyridin-3-yl)imidazo[1,2-a]pyridin-2-yl)acetamide]	> 4.60	> 6.00
Nc1ncc(-c2ccc3nc(NC(=O)N4CCC(C(=O)O)C4)cn3c2)cc1C(F)(F)F (centres unmarked) [Example 151]	> 4.60	> 6.00
CC(=O)Nc1cn2cc(-c3cnc(N)c(C(=O)N4CCN(C(=O)OC(C)(C)C)CC4)c3)ccc2n1 [Example 152, tert-butyl 4-(5-(2-acetamido-imidazo[1,2-a]pyridin-6-yl)-2-aminonicotinoyl) piperazine-1-carboxylate]	> 4.60	> 6.00
COCCOc1nc(-c2ccc3nc(NC(=O)C4CCN4)cn3c2)cnc1N (centres unmarked) [Example 153, N-(6-(5-amino-6-(2-methoxyethoxy)pyrazin-2-yl)imidazo[1,2-a]pyridin-2-yl)azetidine-2-carboxamide]	> 4.60	> 6.00
CNC(=O)C1CCN(C(=O)Nc2cn3cc(-c4cnc(N)c(C(F)(F)F)c4)ccc3n2)C1 (centres unmarked) [Example 154, N1-(6-(6-amino-5-(trifluoromethyl)pyridin-3-yl)imidazo[1,2-a]pyridin-2-yl)-N3-methylpyrrolidine-1,3-dicarboxamide]	> 4.60	> 6.00
CC(=O)Nc1cn2cc(-c3cnc(N)c(C(=O)N4CCCC4)c3)ccc2n1 [Example 155, N-(6-(6-amino-5-(pyrrolidine-1-carbonyl)pyridin-3-yl)imidazo[1,2-a]pyridin-2-yl)acetamide]	> 4.60	> 6.00
C/C=C\c1c(NC(C)=O)nc2ccc(-c3cnc(N)c(C(F)(F)F)c3)cn12 [Example 156, (Z)-N-(6-(6-amino-5-(trifluoromethyl)pyridin-3-yl)-3-(prop-1-enyl)imidazo [1,2-a]pyridin-2-yl)acetamide]	> 4.60	> 6.00
CC(=O)Nc1cn2cc(-c3cnc(N)c(/C=N/OC(C)(C)C)c3)ccc2n1 [Example 157, (E)-N-(6-(6-amino-5-((tert-butoxyimino)methyl)pyridin-3-yl)imidazo[1,2-a]pyridin-2-yl)acetamide]	> 4.60	> 6.00
CC(=O)Nc1cn2cc(-c3cnc(N)c(C(=O)NCCNS(C)(=O)=O)n3)ccc2n1 [Example 158, 6-(2-acetamido-imidazo[1,2-a]pyridin-6-yl)-3-amino-N-(2-(methylsulfon amido)ethyl) pyrazine-2-carboxamide]	> 4.60	> 6.00
N#Cc1ccc(C(=O)Nc2cn3cc(-c4cnc(N)c(C(F)(F)F)c4)ccc3n2)cc1 [Example 159, N-(6-(6-amino-5-(trifluoromethyl)pyridin-3-yl)imidazo[1,2-a]pyridin-2-yl)-4-cyanobenzamide]	> 4.60	> 6.00
CC(=O)Nc1cn2cc(-c3cnc(N)c(C(=O)N4CCNCC4)c3)ccc2n1 [Example 160, N-(6-(6-amino-5-(piperazine-1-carbonyl)pyridin-3-yl)imidazo[1,2-a]pyridin-2-yl)acetamide]	> 4.60	> 6.00
CC(=O)Nc1cn2cc(-c3cnc(N)cn3)ccc2n1 [Example 161, N-(6-(5-aminopyrazin-2-yl)imidazo[1,2-a]pyridin-2-yl)acetamide]	> 4.60	> 6.00
CC(=O)Nc1ccc(-c2c(NC(C)=O)nc3ccc(-c4cnc(N)c(C(F)(F)F)c4)cn23)cc1 [Example 162]	> 4.60	> 6.00
Nc1ncc(-c2ccc3nc(NC(=O)c4ccncc4)cn3c2)cc1C(F)(F)F [Example 163]	> 4.60	> 6.00
CC(=O)Nc1cn2cc(-c3cnc(N)c(Br)n3)ccc2n1 [Example 164, N-(6-(5-amino-6-bromopyrazin-2-yl)imidazo[1,2-a]pyridin-2-yl)acetamide]	> 4.60	> 6.00

More lines, now with the values ahead:

pEC50 (A2780 cells)	pIC50 (PI3 K Alpha)	Structure (SMILES)
> 5.00	> 5.00	NC(=O)N1CCC[C@H]1C(=O)Nc1cn2cc(-c3cnc(N)c(C(F)(F)F)c3)ccc2n1 [Example 46, (S)-N2-(6-(6-amino-5-(trifluoromethyl)pyridin-3-yl)imidazo[1,2-a]pyridin-2-yl)pyrrolidine-1,2-dicarboxamide]
> 5.00	> 6.00	Nc1ncc(-c2ccc3nc(NC(=O)Cc4ccccn4)cn3c2)cc1C(F)(F)F [Example 52, N-(6-(6-amino-5-(trifluoromethyl)pyridin-3-yl)imidazo[1,2-a]pyridin-2-yl)-2-(pyridin-2-yl)acetamide]
> 6.00	> 6.00	Nc1ncc(-c2ccc3nc(NC(=O)CN4CCCCC4)cn3c2)nc1OCC(F)(F)F [Example 109, N-(6-(5-amino-6-(2,2,2-trifluoroethoxy)pyrazin-2-yl)imidazo[1,2-a]pyridin-2-yl)-2-(piperidin-1-yl)acetamide]
> 5.00	> 6.00	CC(=O)Nc1cn2c(C)c(-c3cnc(N)c(OCC(F)(F)F)n3)ccc2n1 [Example 112, N-(6-(5-amino-6-(2,2,2-trifluoroethoxy)pyrazin-2-yl)-5-methylimidazo [1,2-a]pyridin-2-yl)acetamide]
> 5.00	> 6.00	Nc1ncc(-c2ccc3nc(NC(=O)[C@@H]4CCCN4)cn3n2)cc1C(F)(F)F [Example 129, (S)-N-(6-(6-amino-5-(trifluoromethyl)pyridin-3-yl)imidazo[1,2-b]pyridazin-2-yl)pyrrolidine-2-carboxamide]
> 5.00	> 6.00	CC(=O)Nc1cn2cc(-c3cnc(N)c(-c4cccc(F)c4)c3)ccc2n1 [Example 134, N-(6-(6-amino-5-(3-fluorophenyl)pyridin-3-yl)imidazo[1,2-a]pyridin-2-yl)acetamide]
> 4.60	> 6.00	NCCCC(=O)Nc1cn2nc(-c3cnc(N)c(C(F)(F)F)c3)ccc2n1 [Example 137, 4-amino-N-(6-(6-amino-5-(trifluoromethyl)pyridin-3-yl)imidazo[1,2-b]pyridazin-2-yl)butanamide]
> 4.60	> 6.00	Nc1ncc(-c2ccc3nc(NC(=O)CCCC(=O)O)cn3n2)cc1C(F)(F)F [Example 138, 5-(6-(6-amino-5-(trifluoromethyl)pyridin-3-yl)imidazo[1,2-b]pyridazin-2-ylamino)-5-oxopentanoic acid]
> 4.60	> 6.00	CC(=O)Nc1cn2nc(-c3cnc(N)c(C(=O)NCCN)c3)ccc2n1 [Example 139, 5-(2-acetamido-imidazo[1,2-b]pyridazin-6-yl)-2-amino-N-(2-aminoethyl) nicotinamide]
> 4.60	> 6.00	CC(=O)Nc1cn2nc(-c3cnc(N)c(C(=O)NCCO)c3)ccc2n1 [Example 140, 5-(2-acetamido-imidazo[1,2-b]pyridazin-6-yl)-2-amino-N-(2-hydroxyethyl) nicotinamide]
> 4.60	> 6.00	CC(=O)Nc1cn2nc(-c3cnc(N)c(C(=O)NCCNS(C)(=O)=O)c3)ccc2n1 [Example 141, 5-(2-acetamido-imidazo[1,2-b]pyridazin-6-yl)-2-amino-N-(2-(methylsulfon amido)ethyl) nicotinamide]
> 4.60	> 6.00	Nc1ncc(-c2ccc3nc(NC(=O)C4CNC4)cn3n2)cc1Cl [Example 142, N-(6-(6-amino-5-chloropyridin-3-yl)imidazo[1,2-b]pyridazin-2-yl)azetidine-3-carboxamide]
> 4.60	> 6.00	Nc1ncc(-c2ccc3nc(NC(=O)c4ccc(F)nc4)cn3c2)cc1C(F)(F)F [Example 143, N-(6-(6-amino-5-(trifluoromethyl)pyridin-3-yl)imidazo[1,2-a]pyridin-2-yl)-6-fluoronicotinamide]
> 4.60	> 6.00	CC(=O)Nc1cn2cc(-c3ccc(N)nc3C)ccc2n1 [Example 144, N-(6-(6-amino-2-methylpyridin-3-yl)imidazo[1,2-a]pyridin-2-yl)acetamide]
> 4.60	> 6.00	COc1nc(-c2cc(F)c3nc(NC(C)=O)cn3c2)cnc1N [Example 145, N-(6-(5-amino-6-methoxypyrazin-2-yl)-8-fluoroimidazo [1,2-a]pyridin-2-yl)acetamide]
